Experimental data published in the supplement of paper PMC11208160.

Assay: recombinant barcode read abundance after kanamycin selection (control-corrected) (log10(CPM+1)); higher = more efficient recombination; sequences stand for … in AGTGCAGAGAAAATCGGCCAGTTTTCTCTGCCTGCAGTCCGCATGCCGT…AGATTTATGCAGCGGACTGCCTTTCTCCCAAAGTGATAAACCGGACAGTATCATGGACCGGTTTTCCCGGTAATCCGTATTTGCAAGGTTGGTTTCACT; site = the 11-nt target
Outline: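 Recombination efficiency comes from barcode counts at recombinant junctions, converted to counts per million, averaged and corrected against the control. Values appear as log10(CPM+1). They were obtained from a pooled E. coli screen in which each oligo paired a target with an IS621 bridge RNA target-binding loop, and cells were plated in duplicate on chloramphenicol/ampicillin LB agar or on chloramphenicol/ampicillin/kanamycin with 0.1 mM IPTG.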
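Also: IS621 recombinase and bridge RNA in Escherichia coli cells.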

| Sequence | recombinant barcode read abundance (log10) |
| --- | --- |
| CGAAGATCTTGGGTTCTAACCTGTTGCCT (site CGAAGATCTAG) | 0.273 |
| GGCACTGCTTGGGTTCTAACCTGTTGCCT (site GGCACGGCTAG) | 0.189 |
| TAGACAGCTTGGGTTCTAACCTGTTGCCT (site TATACAGCTAG) | 0.0229 |
| AAGGCTACTTGGGTTCTAACCTGTTGCCT (site AAGGCTACTAG) | 0.304 |
| GCGTGTCCTTGGGTTCTAACCTGTTGCCA (site GCGTGTCCTTG) | 0.335 |
| CTTGGATCTTGGGTTCTAACCTGTTGCCT (site CTTGGATCTAG) | 0.913 |
| CCAATTGCTTGGGTTCTAACCTGTTGCCT (site CCAATTGCTAG) | 0.108 |
| GATTATTCTTGGGTTCTAACCTGTTGCCT (site GAGTATTCTAG) | 0.138 |
| GAGTTTCCTTGGGTTCTAACCTGTTGCGT (site GAGTTGCCTAC) | 0.0725 |
| ACGATATCTTGGGTTCTAACCTGTTGCCT (site AGGATATCTAG) | 0.549 |
| GTATGACCTTGGGTTCTAACCTGTTGCTT (site GTAGCACCTAA) | 0.0633 |
| GTCCGTCCTTGGGTTCTAACCTGTTGCCT (site GTCCGTCCTAT) | 0.0563 |
| GCAAGGACTTGGGTTCTAACCTGTTGCAG (site GCACGGACTCT) | 0.165 |
| TCACACTCTTGGGTTCTAACCTGTTGCCT (site TCACACTCTAG) | 1.59 |
| GATGATACTTGGGTTCTAACCTGTTGCGT (site GATGATACTAC) | 2.51 |
| ACGATTCCTTGGGTTCTAACCTGTTGCCT (site ACGATTCCTAG) | 0.355 |
| GAGACAGCTTGGGTTCTAACCTGTTGCCT (site GATACAGCTAG) | 0.504 |
| AGCTAACCTTGGGTTCTAACCTGTTGCCT (site AGTGAACCTAG) | 0.127 |
| TGAGGATCTTGGGTTCTAACCTGTTGCCT (site TGAGGCACTAG) | 0.503 |
| CTTTGTGCTTGGGTTCTAACCTGTTGCCT (site CTTTGTGCTAG) | 0.129 |
| TTCAAGGCTTGGGTTCTAACCTGTTGCCT (site TTCAAGACTAG) | 0.0627 |
| CCACTTCCTTGGGTTCTAACCTGTTGCCT (site CCACTACCTAG) | 0.233 |

| Sequence | recombinant barcode read abundance (log10) |
| --- | --- |
| TTCTCTTCTTGGGTTCTAACCTGTTGCCT (site TTCTGTTCTAG) | 0.103 |
| ATGGGTCCTTGGGTTCTAACCTGTTGCCT (site ATAGGTCCTAG) | 2.07 |
| GGGTCCACTTGGGTTCTAACCTGTTGCCT (site GGGTCCACTAC) | 0.287 |
| GCAAGGCCTTGGGTTCTAACCTGTTGCCT (site TCAAGGCCTAG) | 0.0143 |
| GGAGTCACTTGGGTTCTAACCTGTTGCGG (site TTGACACCTAG) | 0.189 |
| CGTTAGACTTGGGTTCTAACCTGTTGCCT (site CGTGAGACTAG) | 0.147 |
| TAGTTTGCTTGGGTTCTAACCTGTTGCCG (site ACCGACCCTAT) | 0.00726 |
| TAGTCTCCTTGGGTTCTAACCTGTTGCGT (site TAGTTTCCTAC) | 0.135 |
| ACAGGTACTTGGGTTCTAACCTGTTGCCT (site ACAGGTACTAG) | 1.18 |
| TTACGAGCTTGGGTTCTAACCTGTTGCGG (site TTACGGGCTCC) | 0.608 |
| ACGATCGCTTGGGTTCTAACCTGTTGCCT (site ACGACCGCTAG) | 0.197 |
| CGCCTAGCTTGGGTTCTAACCTGTTGCCT (site CTCCTACCTAG) | 0.0925 |
| CACATCACTTGGGTTCTAACCTGTTGCCT (site CACACCACTAG) | 0.225 |
| TACATCCCTTGGGTTCTAACCTGTTGCCT (site TACATCCCTGG) | 0.0929 |
| TGGCAGCCTTGGGTTCTAACCTGTTGCCT (site TGGCAGGCTAG) | 0.231 |
| TTGGGAGCTTGGGTTCTAACCTGTTGCCT (site TTGGAAGCTAG) | 0.984 |
| AACACTCCTTGGGTTCTAACCTGTTGCTT (site AAGACTCCTAA) | 0.299 |
| ATTAGTGCTTGGGTTCTAACCTGTTGCCT (site AATAGTGCTAG) | 0.605 |
| CTAAGGACTTGGGTTCTAACCTGTTGCTA (site CTAAGGACTTA) | 1.11 |
| TCGCAGACTTGGGTTCTAACCTGTTGCAC (site TGGCCGACTGT) | 0.119 |
| TTAGCCTCTTGGGTTCTAACCTGTTGCCT (site TTAGCATCTAG) | 0.168 |
